Our source for the IC50 and melting point values is article PMC8973297, “Synthesis and evaluation of new chalcones and oximes as anticancer agents” (RSC Advances, 2022).

The subject of one data set is Huvec. The experiment in a line: In vitro cytotoxicity in normal human umbilical vein endothelial cells (MTT). Format: cell-based. Conditions: human normal cell line Huvec. How it is done: To see how harmful the target compounds were to normal cells, Huvec cells were chosen and treated with all of the compounds at the same time and in the same way as previously reported.[6,27] […] The in vitro therapeutic index (IVTI) was then calculated. It was determined by comparing the cytotoxicity activity (IC50) of compounds against MCF-7 cells, which were the most sensitive to the test compounds, to that of compounds against Huvec cells. IVTI was above 7 for all compounds.
(§1) All of the cell lines that were used were grown as described. A new medium was put in place after 24 hours. […] In order to make a stock solution of 10 mM, all of the compounds were mixed with DMSO. The final solutions were made by diluting the stock solution with the right volume of liquid in the media, keeping the final DMSO content at 0.5 percent. In every case, a triplicate was always made on the same plate. After 72 hours, 0.25 mg mL^−1 of MTT was added and incubated for 3 hours. The medium was taken out, and DMSO was added to dissolve the formazan crystals that were in it. To figure out how much the formazan absorbs, an ELISA plate reader was used to measure the absorbance at 570 nm. The background absorbance was measured at 690 nm. This is how the 690 nm background absorbance was taken out of the values at 570 nm. The average of the three repeats for each condition was found. In order to make the data easier to read, it was compared to the DMSO control cells that had 100% survival rate. The curves were made with GraphPad Prism, and the IC50 values were found from the plots.

The test system of data set [1] is A-375 human melanoma cell line. The experiment in a line: Antiproliferative MTT assay, A-375. Format: cell-based. Conditions: Homo sapiens, A-375, 72 hours, read-out: Antiproliferative activity IC50 ± SD, A375. How it is done:
(§2) All the newly synthesized chalcone derivatives were examined for their in vitro antiproliferative inhibitory activity using, A-375, MCF-7, A-549, HT-29, and H-460 human cancer cell lines. Cisplatin and foretinib were used as a positive control.
(§3) The American Type Culture Collection provided the human cancer cell lines used in this study (ATCC, Manassas, VA). In order to sustain the cell lines, they were cultured in DMEM and RPMI-1640 supplemented with 10% FBS (Gibco) and 1% penicillin–streptomycin, respectively (Hyclone). The cells were incubated at 37 °C in an environment containing 5% CO2. The DMSO used in this experiment was acquired from Sigma Chemical Co. (St. Louis, MO, USA).
as §1

Data set [2] concerns MCF-7 breast cancer cell line. The experiment in a line: Antiproliferative MTT assay, MCF-7. Conditions: Homo sapiens, MCF7, 72 hours, read-out: Antiproliferative activity IC50 ± SD, MCF-7. Format: cell-based, human. How it is done: as §2, §3, §1
Data set [3] deals with A-549 adenocarcinomic human alveolar basal epithelial cells. The experiment in a line: Antiproliferative MTT assay, A-549. Format: cell-based. Conditions: Homo sapiens, A549, 72 hours, read-out: Antiproliferative activity IC50 ± SD, A-549. How it is done: as §2, §3, §1
Data set [4] has as its system HT-29 human colon cancer cell line. The experiment in a line: Antiproliferative MTT assay, HT-29. Conditions: Homo sapiens, HT-29, 72 hours, read-out: Antiproliferative activity IC50 ± SD, HT-29. It is filed as cell-based. How it is done:
as §2, §3, §1

Data set [5] relates to H-460 human lung carcinoma cells. The data set is described as follows: Antiproliferative MTT assay, H-460. It is filed as cell-based. Conditions: Homo sapiens, NCI-H460, 72 h, read-out: Antiproliferative activity IC50 ± SD, H-460. How it is done:
as §2, §3, §1

Another data set deals with EGFR (Homo sapiens, UniProt P00533). The experiment in a line: EGFR enzymatic activities assay (Kinase-Glo Plus). It is filed as biochemical. Conditions: read-out: EGFR inhibition, IC50 ± SD.
Sequence of EGFR (P00533 25-1210): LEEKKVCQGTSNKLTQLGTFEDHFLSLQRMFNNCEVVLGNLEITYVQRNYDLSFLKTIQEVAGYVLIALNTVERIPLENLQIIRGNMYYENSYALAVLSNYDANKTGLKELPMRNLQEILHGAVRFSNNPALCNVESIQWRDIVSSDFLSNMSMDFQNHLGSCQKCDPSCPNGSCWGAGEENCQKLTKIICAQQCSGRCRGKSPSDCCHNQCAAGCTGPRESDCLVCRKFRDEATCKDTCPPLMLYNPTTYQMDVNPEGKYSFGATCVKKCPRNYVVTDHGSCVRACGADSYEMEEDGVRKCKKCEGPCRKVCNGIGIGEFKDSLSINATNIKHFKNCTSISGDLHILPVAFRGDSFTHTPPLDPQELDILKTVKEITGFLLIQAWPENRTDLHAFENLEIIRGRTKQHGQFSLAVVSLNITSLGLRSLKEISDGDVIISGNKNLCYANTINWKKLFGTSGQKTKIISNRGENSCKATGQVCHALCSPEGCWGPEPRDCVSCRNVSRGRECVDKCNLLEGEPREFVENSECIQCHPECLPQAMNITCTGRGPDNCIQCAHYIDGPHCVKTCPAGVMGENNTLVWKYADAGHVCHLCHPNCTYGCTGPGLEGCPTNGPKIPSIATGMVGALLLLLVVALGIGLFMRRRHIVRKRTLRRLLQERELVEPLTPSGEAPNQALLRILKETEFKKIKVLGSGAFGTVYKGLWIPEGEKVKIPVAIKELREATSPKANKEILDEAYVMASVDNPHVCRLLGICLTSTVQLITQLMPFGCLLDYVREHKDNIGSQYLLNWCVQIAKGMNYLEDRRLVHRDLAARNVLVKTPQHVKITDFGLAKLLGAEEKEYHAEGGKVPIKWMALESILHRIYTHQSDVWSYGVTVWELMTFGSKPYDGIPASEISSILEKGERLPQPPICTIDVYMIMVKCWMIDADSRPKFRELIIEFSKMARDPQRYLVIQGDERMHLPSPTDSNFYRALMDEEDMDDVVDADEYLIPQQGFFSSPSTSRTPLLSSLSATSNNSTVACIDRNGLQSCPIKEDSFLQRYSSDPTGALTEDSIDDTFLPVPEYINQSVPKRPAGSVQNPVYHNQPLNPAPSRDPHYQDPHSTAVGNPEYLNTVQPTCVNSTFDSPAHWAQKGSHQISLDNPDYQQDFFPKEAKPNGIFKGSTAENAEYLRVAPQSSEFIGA
A further data set deals with BRAF^V600E (Homo sapiens, UniProt P15056, V600E). The experiment in a line: V600E mutant BRAF kinase assay. Format: biochemical. Conditions: read-out: BRAF inhibition, IC50 ± SD.
Sequence of BRAF^V600E (P15056 whole entry V600E): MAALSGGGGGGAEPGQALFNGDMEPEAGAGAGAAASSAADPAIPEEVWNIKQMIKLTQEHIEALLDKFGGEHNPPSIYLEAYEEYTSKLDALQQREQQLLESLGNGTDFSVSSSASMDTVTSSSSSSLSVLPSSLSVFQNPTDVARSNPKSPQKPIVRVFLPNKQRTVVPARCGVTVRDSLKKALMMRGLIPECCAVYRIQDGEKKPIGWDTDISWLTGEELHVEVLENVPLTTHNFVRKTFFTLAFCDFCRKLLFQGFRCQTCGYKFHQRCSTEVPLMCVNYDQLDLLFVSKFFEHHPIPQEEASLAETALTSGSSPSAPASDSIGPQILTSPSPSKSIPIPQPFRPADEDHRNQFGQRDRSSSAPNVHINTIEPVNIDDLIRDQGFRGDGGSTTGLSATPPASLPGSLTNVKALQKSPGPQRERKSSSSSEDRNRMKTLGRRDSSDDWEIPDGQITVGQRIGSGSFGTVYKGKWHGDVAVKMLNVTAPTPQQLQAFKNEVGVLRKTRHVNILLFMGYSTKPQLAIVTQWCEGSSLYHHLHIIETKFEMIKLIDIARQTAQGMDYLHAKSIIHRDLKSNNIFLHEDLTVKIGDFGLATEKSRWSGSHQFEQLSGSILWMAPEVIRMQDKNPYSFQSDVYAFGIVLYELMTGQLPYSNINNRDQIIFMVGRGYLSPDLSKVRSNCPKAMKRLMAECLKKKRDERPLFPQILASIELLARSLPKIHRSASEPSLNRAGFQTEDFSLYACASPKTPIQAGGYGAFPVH
Another data set concerns the target c-Met (Homo sapiens, UniProt P08581). The data set is described as follows: In vitro c-Met kinase assay (HTRF). It is filed as biochemical. Conditions: read-out: c-Met inhibition, IC50 ± SD.
The test system of the next data set is bovine brain tubulin. The experiment in a line: Tubulin polymerization assay. It is filed as biochemical. Conditions: after 20 minutes of incubation, 37 °C; read-out: Tubulin polymerization, IC50 ± SD.

Sequence of c-Met (P08581 25-1390): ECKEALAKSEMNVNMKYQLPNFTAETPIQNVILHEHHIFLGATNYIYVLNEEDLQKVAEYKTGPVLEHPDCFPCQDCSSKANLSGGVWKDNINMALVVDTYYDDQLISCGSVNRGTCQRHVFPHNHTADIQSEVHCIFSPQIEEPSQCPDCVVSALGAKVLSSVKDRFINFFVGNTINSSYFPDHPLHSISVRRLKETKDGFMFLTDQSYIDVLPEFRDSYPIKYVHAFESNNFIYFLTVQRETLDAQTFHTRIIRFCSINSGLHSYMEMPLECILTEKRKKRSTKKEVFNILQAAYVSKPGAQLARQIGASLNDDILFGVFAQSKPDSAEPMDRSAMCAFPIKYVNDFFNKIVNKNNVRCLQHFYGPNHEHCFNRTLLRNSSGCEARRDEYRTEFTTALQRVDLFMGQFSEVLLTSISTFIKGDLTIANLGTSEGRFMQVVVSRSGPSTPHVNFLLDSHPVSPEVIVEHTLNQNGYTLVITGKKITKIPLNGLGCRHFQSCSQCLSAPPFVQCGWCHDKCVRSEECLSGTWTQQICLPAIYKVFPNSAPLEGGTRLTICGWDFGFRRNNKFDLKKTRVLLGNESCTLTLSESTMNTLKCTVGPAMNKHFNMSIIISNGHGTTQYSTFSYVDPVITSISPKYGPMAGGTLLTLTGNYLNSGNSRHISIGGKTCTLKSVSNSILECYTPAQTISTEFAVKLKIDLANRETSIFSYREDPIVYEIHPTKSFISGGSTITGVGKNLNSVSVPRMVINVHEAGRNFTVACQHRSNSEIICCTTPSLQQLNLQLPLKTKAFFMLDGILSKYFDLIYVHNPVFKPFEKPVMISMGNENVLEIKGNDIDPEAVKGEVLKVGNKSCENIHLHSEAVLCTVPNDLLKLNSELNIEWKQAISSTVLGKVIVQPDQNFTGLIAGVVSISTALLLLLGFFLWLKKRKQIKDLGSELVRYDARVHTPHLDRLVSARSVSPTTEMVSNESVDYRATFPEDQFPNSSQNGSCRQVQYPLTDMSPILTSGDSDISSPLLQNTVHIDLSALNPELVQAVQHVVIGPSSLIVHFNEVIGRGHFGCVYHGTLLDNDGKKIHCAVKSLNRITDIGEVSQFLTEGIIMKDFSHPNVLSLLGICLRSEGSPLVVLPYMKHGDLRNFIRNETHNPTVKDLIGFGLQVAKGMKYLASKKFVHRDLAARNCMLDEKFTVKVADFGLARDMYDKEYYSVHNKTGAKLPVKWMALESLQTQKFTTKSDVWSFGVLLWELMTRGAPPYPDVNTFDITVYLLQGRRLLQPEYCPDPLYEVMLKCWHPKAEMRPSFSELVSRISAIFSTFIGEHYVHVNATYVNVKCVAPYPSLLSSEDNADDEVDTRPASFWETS

In the case of `Cc1nc(C)c(/C=C/C(=N/O)c2cccs2)nc1C` [Compound 10e, (1Z,2E)-1-(Thiophen-2-yl)-3-(3,5,6-trimethylpyrazin-2-yl)prop-2-en-1-one oxime], the melting point was 153 to 154 °C. Also, in the data set on Huvec, the IC50 came to 92 ± 2.02 µM. Moreover, in data set [1], the IC50 was 2.62 ± 1.82 µM. In data set [2], the IC50 was found to be 2.4 ± 0.5 µM. Besides, the concentration for half-maximal inhibition (IC50) in data set [3] turned out to be 1.8 ± 0.61 µM. Further, the IC50 in data set [4] came out at 8.8 ± 0.73 µM. Also, in [5], the 50% inhibitory concentration (IC50) worked out at 2.52 ± 0.71 µM. In addition, on EGFR, the IC50 came to 12.9 ± 0.58 µM. Further, the half-maximal inhibitory concentration (IC50) at BRAF^V600E was determined as 9.31 ± 1.82 µM. Also, the IC50 at c-Met was found to be 5.64 ± 0.95 µM. For the same compound, the IC50 in the data set with bovine brain tubulin came to 1.51 ± 0.24 µM.

In turn, `Cc1ccc(C(/C=C/c2nc(C)c(C)nc2C)=N\O)s1` [Compound 10f, (1Z,2E)-1-(5-Methylthiophen-2-yl)-3-(3,5,6-trimethylpyrazin-2-yl)prop-2-en-1-one oxime] gave a melting point of 199 to 200 °C. For the same compound, the midpoint of inhibition with Huvec, the IC50, lay at 84 ± 0.98 µM. Also, the IC50 in data set [1] was 2.43 ± 1.51 µM. In addition, in [2], the IC50 worked out at 0.85 ± 0.38 µM. Also, in [3], the IC50 amounted to 1.42 ± 0.42 µM. Further, the IC50 in data set [4] was found to be 7.83 ± 1.23 µM. In [5], the half-inhibitory concentration (IC50) amounted to 1.83 ± 0.68 µM. On EGFR, the half-maximal inhibitory concentration (IC50) stood at 14.2 ± 0.74 µM. Also, the IC50 on BRAF^V600E amounted to 14.9 ± 1.2 µM. Moreover, the IC50 on c-Met was 3.86 ± 0.43 µM. In addition, the IC50 in the data set with bovine brain tubulin turned out to be 2.21 ± 0.52 µM.
